Consider one compound from US8853248B2, “(1,2,3-triazolyl)sulfonyl derivatives” (priority 2012, dated 2014).

For assay [1], the system named is adjuvant-induced arthritis. It counts as in vivo, rat (male Lewis rats). The settings on record: 30 mg/kg daily by intubation, 7 treatment days; day 28 minus day 21; micronized compound; standard deviation in parentheses. The procedure: As mentioned earlier, the compounds of formula (1) and pharmaceutically acceptable salts of compounds of formula (1) are useful in the treatment or prevention of inflammations. For example, they can be used as anti-inflammatory agents in the treatment of inflammatory joint diseases, such as arthritis, and in other diseases where inflammation is the inherent cause.
The adjuvant was prepared by homogenizing 170 mg of heat-killed and dried mycobacterium tuberculosis (Difco) in 22.7 mL of ‘Incomplete Freund's Adjuvant’ (ICFA, Difco). Male Lewis rats with body weights of 130-150 g were injected i.d. at the base of the tail with 0.1 ml of adjuvant. The non-diseased animals received 0.1 mL of ICFA i.d. The animals were housed individually and received feed and water ad libitum. The thus-induced arthritis was allowed to develop without treatment during 21 days. On day 21 the body weight of each animal was determined. At the same time, the volumes of the two hind paws of each animal were measured by immersing the paws in an aqueous plethysmograph up to the height of the lateral malleolus. […] Paw volumes and body weight were recorded diurnally. At the end of the treatment period (day 28), body weights and volumes of the hind paws were again determined. The changes over the treatment period were calculated. […] Subsequently, the animals were sacrificed and the liver weights recorded. […]

In assay [2] the target is T1, ovine COX-1 (Ovis aries, UniProt P05979).
T1 construct: purchased Cayman Chemicals
T1 sequence (P05979 25-600): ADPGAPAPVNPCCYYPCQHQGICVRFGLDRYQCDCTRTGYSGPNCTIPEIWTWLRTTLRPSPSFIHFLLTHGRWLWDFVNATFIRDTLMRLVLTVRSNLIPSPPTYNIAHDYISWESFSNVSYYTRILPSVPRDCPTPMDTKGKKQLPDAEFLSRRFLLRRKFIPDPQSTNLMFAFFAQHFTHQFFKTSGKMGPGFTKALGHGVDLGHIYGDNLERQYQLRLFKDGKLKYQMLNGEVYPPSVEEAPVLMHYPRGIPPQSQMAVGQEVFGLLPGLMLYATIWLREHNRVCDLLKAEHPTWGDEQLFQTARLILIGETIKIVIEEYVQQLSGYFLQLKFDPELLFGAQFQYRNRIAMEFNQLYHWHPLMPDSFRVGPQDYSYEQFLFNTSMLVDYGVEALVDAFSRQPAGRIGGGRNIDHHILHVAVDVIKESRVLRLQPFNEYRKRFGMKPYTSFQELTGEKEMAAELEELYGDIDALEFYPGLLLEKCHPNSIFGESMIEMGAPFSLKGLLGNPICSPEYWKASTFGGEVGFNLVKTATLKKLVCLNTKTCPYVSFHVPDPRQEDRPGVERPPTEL
Nature of the assay: COX activity assay (Cayman colorimetric kit), COX-1. It counts as biochemical. The settings on record: at a level of 300 μM; purified enzyme, peroxidase activity read at 590 nm. As to the method: (§1) COX activity was measured using an assay kit obtained from Cayman Chemicals in accord with the instruction manual of the manufacturer “COX Activity Assay, Catalog No. 760151, Colorimetric Assay for the Determination of COX Activity.” The enzyme activity was determined by the peroxidase activity of cyclooxygenases on arachidonic acid and monitored colorimetrically at 590 nm by the appearance of oxidized N,N,N′,N′-tetramethyl-p-phenylenediamine. Both ovine COX-1 and human recombinant COX-2 were obtained from Cayman Chemicals.

For assay [3], the target named is T2, human recombinant COX-2 (Homo sapiens, UniProt P35354).
T2 construct: purchased Cayman Chemicals
T2 sequence (P35354 18-604): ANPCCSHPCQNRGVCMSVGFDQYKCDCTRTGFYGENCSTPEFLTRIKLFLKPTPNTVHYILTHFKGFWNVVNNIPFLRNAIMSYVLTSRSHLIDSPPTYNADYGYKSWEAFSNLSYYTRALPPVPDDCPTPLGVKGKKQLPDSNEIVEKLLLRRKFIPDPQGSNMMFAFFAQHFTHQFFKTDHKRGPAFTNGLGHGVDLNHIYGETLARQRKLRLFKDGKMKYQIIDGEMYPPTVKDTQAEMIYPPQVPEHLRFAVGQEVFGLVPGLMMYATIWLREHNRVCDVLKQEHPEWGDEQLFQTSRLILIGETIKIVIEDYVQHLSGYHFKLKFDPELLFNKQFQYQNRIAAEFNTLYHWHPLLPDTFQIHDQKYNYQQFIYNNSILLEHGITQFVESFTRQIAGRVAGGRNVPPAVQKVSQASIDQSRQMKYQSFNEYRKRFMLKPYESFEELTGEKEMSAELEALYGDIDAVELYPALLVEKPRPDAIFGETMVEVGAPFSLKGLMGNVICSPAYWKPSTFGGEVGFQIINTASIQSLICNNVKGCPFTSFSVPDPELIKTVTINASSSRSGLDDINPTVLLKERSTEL
Nature of the assay: COX activity assay (Cayman colorimetric kit), COX-2. It counts as biochemical. The settings on record: purified enzyme, peroxidase activity read at 590 nm. As to the method: as §1

For the compound `CNS(=O)(=O)c1nn[nH]c1-c1cc(C(C)(C)C)c(O)c(C(C)(C)C)c1` [Compound 1i, 5-(3,5-di-tert-butyl-4-hydroxy-phenyl)-N-methyl-1H-triazole-4-sulfonamide], in assay [1], the “Volume change of left paw” value is recorded as −0.73 (0.08) mL and the “Volume change of right paw” value is recorded as −0.63 (0.11) mL. Also, the “effect on COX-1 activity” value in assay [2] is reported as “no effect”. Further, the half-inhibitory concentration (IC50) in assay [3] was 68 µM.

As a reminder, the IC50 is the concentration that inhibits the measured activity by half.
